Laboratory results from patent US20170339957A1, “AQUEOUS DISPERSIONS” (Rohm and Haas Company, priority 2011, published 2017).

Experiments:
[1] = pH 7.5 or lower; cited from earlier work
[2] = Protocol 1: dissolving BIT in basic solution (exotherm peak, pH, dissolution and inherent precipitation temperature); assay type: physicochemical
Text: “Protocol 1” means the following: A mixture (herein “mixture 1”) was formed as follows: 151.18 g of BIT paste (concentration 83% to 85% BIT by weight based on the weight of the paste) was mixed with basic solution and with water. The amount of basic solution was chosen to have equivalent ratio of 1:1 with BIT, and the amount of water was chosen to make Mixture 1 have the desired concentration of BIT. In some cases, the process of mixing the ingredients of Mixture 1 is exothermic; in such cases, the peak temperature reached by the mixture was recorded as the “exotherm peak.” From that mixture, a sample of 100 g (herein the “test1 batch”) was used. If some or all of the BIT was not dissolved, the test1 batch was heated (up to a maximum of 61° C.), and if there was a temperature of 61° C. or below at which all the BIT was dissolved, that temperature was recorded as the “dissolution temperature.” If BIT is all dissolved at ambient temperature, the dissolution temperature is herein taken to be 23° C. Then, the inherent precipitation temperature was observed by cooling the test 1 batch to 0° C. or to a point at which BIT precipitated, whichever temperature is higher. Then, the test 1 batch was heated to a temperature (herein “T2”) at or above the dissolution temperature; while the solution was at temperature T2, thickener was added and acid solution was added.
In some of the Examples below, Protocol 1 was performed repeatedly, using various basic solutions and various concentrations of BIT. The purpose of these repeated performances of Protocol 1 was to answer the following question: “While using a specific basic solution and using temperatures between approximately 23° C. and approximately 60° C., when making aqueous mixture (I), what range of BIT concentration is possible?”

SMILES: O=c1[nH]sc2ccccc12 [BIT, 1,2-Benzisothiazolin-3-one]
- solubility in water [1]: low solubility
- BIT concentration range for making aqueous mixture (I) ([2]; using ammonia): 5%
- BIT concentration range for making aqueous mixture (I) ([2]; using diaminoethane): 5%
- BIT concentration range for making aqueous mixture (I) ([2]; using mono-ethanolamine): 5%
